Experimental findings from patent publication US20220048900A1, “AMORPHOUS SPARSENTAN COMPOSITIONS” (Travere Therapuetics, Inc., priority 2018, published 2022) are described below.

Data set [1] can be described thus: MDSC of sparsentan and spray dried sparsentan dispersions. It counts as physicochemical. Here is the method: MDSC was performed using a TA Instruments Q200 differential scanning calorimeter equipped with a TA instruments Refrigerated Cooling System 90. MDSC was used to measure glass transition temperature (Tg), cold crystallization (Tc), defined as a crystallization event at a temperature lower than the melt temperature, and melting temperature (Tm). Samples were placed in non-hermetic aluminum pans and heated at a constant rate of 2.0° C./min over a 25-200° C. temperature range. The system was purged by nitrogen flow at 50 mL/min to ensure inert atmosphere through the course of measurement.
Thermal properties, melting temperature (Tm), glass transition temperature (Tg), and crystallization temperature (Tc) of sparsentan was measured by MDSC. The Tg was measured via a melt-quench technique, heating past its melting temperature and rapidly cooling to trap the molten material in an amorphous state. The resulting sample was analyzed by MDSC and a Tg of 42° C. was determined (FIG. 4).

Data set [2] in a line: Pharmacokinetics of crystalline and amorphous sparsentan formulations, single IV or PO dose (Example 4). It is filed as in vivo, male Sprague Dawley rats. The settings on record: for % F (dose-normalized AUC0-24 hr PO/IV): vs IV crystalline sparsentan 1 mg/kg. As for the experimental part:
Sparsentan was administered intravenously as a bolus injection (“IV”) or orally (“PO”) to male Sprague Dawley rats in a single dose, as described in Table 11. Four sparsentan formulations were tested: crystalline sparsentan (“Crystalline Sp”); spray dried dispersion particles formed from a 50:50 mixture of sparsentan and polyvinylpyrrolidone-vinyl acetate copolymer (“50:50 Sp:PVP-VA SDD”); spray dried dispersion particles formed from a 50:50 mixture of sparsentan and hydroxypropyl methylcellulose (“50:50 Sp:HPMC E3LV SDD”); and spray dried dispersion particles formed from a 50:50 mixture of sparsentan and hypromellose acetate succinate HG (“50:50 Sp: HPMCAS-H SDD”). Formulations were administered in a vehicle comprised of either a mixture of PEG400:ethanol:sterile water (30:30:40 v/v/v) (“A”) or a mixture of 0.5% Methocel A4M, 0.1% Tween-80 in purified water (“B”).
Blood samples were collected at 0.083 (Group 1 only), 0.25, 0.5, 1, 2, 4, 6, 8, and 24 hours post dose. Blood was collected into tubes containing K2EDTA and centrifuged, and resulting plasma samples were obtained. For each group, the following PK parameters were determined: maximum observed plasma concentration (Cmax), time of maximum observed plasma concentration (Tmax), and area under the plasma concentration-time curve (AUC). AUC from time 0 to 24 hours (AUC0-24 hr) was calculated for all groups with at least three consecutive quantifiable concentrations. For the IV dose, extrapolated null concentration (C0) was calculated and used as Cmax at time zero. For the oral doses, extrapolated value at time zero was assigned as 0.0 ng/m L. The AUC based on actual collection time point was from 0.083 to 24 hours for IV group and from 0.25 to 24 hour for PO group. Absolute bioavailability evaluation was determined as “% F” between single dose IV and oral dose, calculated as follows:
% F=Mean Dose Normalized AUC0-24 hr(PO)/Mean Dose Normalized AUC0-24 hr (IV).

Data set [3] is described as follows: Pharmacokinetics of modified release sparsentan formulations, PO (Example 5). It counts as in vivo, male Sprague Dawley rats. The settings on record: male rats. Here is the method:
Sparsentan was administered orally (“PO”) to male Sprague Dawley rats in a single or twice-a-day dose, as described in Table 14. Formulations were administered in a vehicle comprised of a mixture of 0.5% methylcellulose 4000 cps and 0.25% Tween 80 in distilled water. All animals were fasted overnight through approximately 4 hours post-dose. Animals receiving Formulation #2 were not fasted for the second dose administration.
Blood (approximately 0.3 mL) was collected from a jugular vein from each animal via syringe and needle and transferred into tubes containing K2EDTA at approximately 0.5, 1, 2, 4, 8 (prior to second dose for Group 2), 10, 12, and 24 hours post-dose. Another vein may be used as an alternative blood collection site. For each group, the following PK parameters were determined: maximum observed plasma concentration (Cmax), time of maximum observed plasma concentration (Tmax), and area under the plasma concentration-time curve (AUC). AUC from time 0 to 24 hours (AUC0-24 hr) was calculated for all groups with at least three consecutive quantifiable concentrations.

Compound `CCCCC1=NC2(CCCC2)C(=O)N1Cc1ccc(-c2ccccc2S(=O)(=O)Nc2noc(C)c2C)c(COCC)c1` [Sparsentan, 2-[4-[(2-butyl-4-oxo-1,3-diazaspiro[4.4]non-1-en-3-yl)methyl]-2-(ethoxymethyl)phenyl]-N-(4,5-dimethyl-1,2-oxazol-3-yl)benzenesulfonamide] gave a Tg in data set [1] (melt-quench technique) of 42 °C. For the same compound, the physical stability entry in data set [1] (modulated ramp up to 200° C.) is reported as “stable as a neat amorphous form”.

One may read the Cmax as the peak of the concentration-time curve. For orientation: Tmax means the time from dosing to the highest level. Consider `CCCCC1=NC2(CCCC2)C(=O)N1Cc1ccc(-c2ccccc2S(=O)(=O)Nc2noc(C)c2C)c(COCC)c1` [crystalline sparsentan, 2-[4-[(2-butyl-4-oxo-1,3-diazaspiro[4.4]non-1-en-3-yl)methyl]-2-(ethoxymethyl)phenyl]-N-(4,5-dimethyl-1,2-oxazol-3-yl)benzenesulfonamide], for which the “% F (dose-normalized AUC0-24 hr PO/IV)” value in data set [2] (Group 2: PO 20 mg/kg) stood at 50.1%; in data set [2] (Group 3: PO 60 mg/kg), 55.2%. In addition, the “Cmax increase with increasing dose (dose proportionality)” value in data set [2] (oral doses 20 and 60 mg/kg, male rats) is listed as “approximately dose proportional”. In addition, the concentration in data set [3] (Sprague Dawley, rat, 60 mg/kg/day, plasma, dose mg/kg/day #1 60, #2 60 (30 x 2, from first dose), #3 38, #4 28.8, #5 30, #6 28.6) peaked (Cmax) at 54.6 µg/mL. Also, the AUC in data set [3] (Sprague Dawley, rat, 60 mg/kg/day, plasma, dose mg/kg/day #1 60, #2 60 (total dose), #3 38, #4 28.8, #5 30, #6 28.6, read-out: AUC0.5-24 hr) came out at 311 µg·h/mL. Moreover, the Tmax in data set [3] (Sprague Dawley, rat, plasma, 60 mg/kg/day, median, dose mg/kg/day #1 60, #2 60 (30 x 2, from first dose), #3 38, #4 28.8, #5 30, #6 28.6) is 4 h. For the same compound, in data set [3] (dose-normalized, #2 from first dose), the “Cmax/Dose” value came out at 909 kg·ng/mL/mg. Further, in data set [3] (dose-normalized, #2 from the total dose), the “AUC0.5-24 hr/Dose” value was 5189 kg·ng·h/mL/mg.
